In patent publication US10899738B2 (THE REGENTS OF THE UNIVERSITY OF MICHIGAN, priority 2016, dated 2021):
Where two headings read alike, the source gives them in different places.

Experiments:
[1] = Cell growth inhibition, CellTiter-Glo Luminescent Cell Viability Assay; format: cell-based
In short: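 Cells seeded at 2,000/well with serially diluted compound and cultured 4 days at 37 °C, 5% CO2. Viability read by CellTiter-Glo luminescence; IC50 derived from dose-response.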

[2] = target: menin protein (Homo sapiens (Human), UniProt O00255); assay: biochemical; format: binding; conditions: FP competitive binding; menin protein 4 nM, FAM-MM2 probe 2 nM; read-out: Menin Binding Affinity IC50
Chain of menin protein (O00255 whole entry): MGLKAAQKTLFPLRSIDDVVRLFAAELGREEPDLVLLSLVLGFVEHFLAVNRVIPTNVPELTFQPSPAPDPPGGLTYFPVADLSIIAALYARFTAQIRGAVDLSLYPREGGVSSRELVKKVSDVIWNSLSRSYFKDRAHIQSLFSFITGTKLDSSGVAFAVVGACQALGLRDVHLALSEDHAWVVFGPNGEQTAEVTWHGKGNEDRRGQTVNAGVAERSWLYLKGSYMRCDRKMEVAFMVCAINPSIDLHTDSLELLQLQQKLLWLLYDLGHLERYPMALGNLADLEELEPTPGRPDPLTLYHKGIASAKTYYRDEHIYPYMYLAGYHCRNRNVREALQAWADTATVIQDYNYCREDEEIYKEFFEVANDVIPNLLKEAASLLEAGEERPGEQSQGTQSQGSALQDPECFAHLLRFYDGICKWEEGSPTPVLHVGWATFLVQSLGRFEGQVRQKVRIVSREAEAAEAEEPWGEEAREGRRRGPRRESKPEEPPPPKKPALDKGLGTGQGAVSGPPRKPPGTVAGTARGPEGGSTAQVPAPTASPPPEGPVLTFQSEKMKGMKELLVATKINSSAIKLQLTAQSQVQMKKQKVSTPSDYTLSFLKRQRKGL
In short: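 Competitive fluorescence polarization assay using FAM-labelled MLL1 peptide probe FAM-MM2 (2 nM final) preincubated with menin (4 nM final) in PBS with 0.02% bovine γ-globulin, 4% DMSO and 0.01% Triton X-100. Compounds were added and incubated 30 min at room temperature. IC50 came from nonlinear regression of competition curves, with Ki also derived.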

[3] = MOLM-13, 96 h, read-out: Cell Growth Inhibition IC50 (μM) MOLM13, MOLM13 cells, 4 days, CellTiter-Glo
[4] = MV4-11, 96 h, read-out: Cell Growth Inhibition IC50 (μM) MV4, 11, MV4, 11 cells, 4 days, CellTiter-Glo
[5] = MOLM-13, 96 h, MOLM13 cells, 4 days, CellTiter-Glo, read-out: Cell Growth Inhibition IC50 (μM) MOLM13
[6] = MV4-11, 96 h, MV4, 11 cells, 4 days, CellTiter-Glo, read-out: Cell Growth Inhibition IC50 (μM) MV4, 11

Row | SMILES | IC50 [1, 3] [µM] | IC50 [1, 4] [µM] | IC50 [2] [nM] | IC50 [1, 5] [µM] | IC50 [1, 6] [µM]
1 | CNC(=O)O[C@H]1CCC[C@@H]1C(Cn1cccc1)(c1ccccc1)C1CCN(CC2CN(c3ccc(S(=O)(=O)c4ccccc4)cc3)C2)CC1 (mixture of isomers) [compound 359, rac-(1S,2R)-2-(1-phenyl-1-(1-((1-(4-(phenylsulfonyl)phenyl)azetidin-3-yl)methyl)piperidin-4-yl)-2-(1H-pyrrol-1-yl)ethyl)cyclopentyl methylcarbamate] | 1.46 | 0.43 | 12 |  | 
2 | CCN1Cc2ccccc2C(C2CCCC2)(C2CCN(CC3CN(c4ccc(S(=O)(=O)c5ccnc6cnccc56)cc4)C3)CC2)C1 (stereo not drawn) [compound 158, 4-((4-(3-((4-(4-cyclopentyl-2-ethyl-1,2,3,4-tetrahydroisoquinolin-4-yl)piperidin-1-yl)methyl)azetidin-1-yl)phenyl)sulfonyl)-1,7-naphthyridine] |  |  | 8 | 1.56 | 0.8
3 | N#Cc1ccc(OCCCN2CCC(C3(C4CCCC4)CNCc4ccccc43)CC2)cc1 (stereo not drawn) [compound 19, 4-(3-(4-(4-cyclopentyl-1,2,3,4-tetrahydroisoquinolin-4-yl)piperidin-1-yl)propoxy)benzonitrile] | 7.3 | 1.6 ± 0.1 | 61 |  | 
4 | CNC(=O)O[C@H]1CCC[C@@H]1C(C#N)(c1ccccc1)C1CCN(CC2CN(c3ccc(S(=O)(=O)c4ccn(C)n4)cc3)C2)CC1 (mixture of isomers) [compound 230, rac-(1S,2R)-2-(cyano(1-((1-(4-((1-methyl-1H-pyrazol-3-yl)sulfonyl)phenyl)azetidin-3-yl)methyl)piperidin-4-yl)(phenyl)methyl) cyclopentyl methylcarbamate] | 0.25 | 0.092 | 7 |  | 
5 | CNC(=O)O[C@H]1CCC[C@@H]1C(C#N)(c1ccccc1)C1CCN(CC2CN(c3ccc(C(F)(F)F)cc3)C2)CC1 (mixture of isomers) [compound 367, rac-(1S,2R)-2-(cyano(phenyl)(1-((1-(4-(trifluoromethyl)phenyl)azetidin-3-yl)methyl)piperidin-4-yl)methyl)cyclopentyl methylcarbamate] | 2.96 | 1.66 | 30 |  | 
6 | CCc1nccn1CC(c1ccccc1)(C1CCN(CC2CN(c3ccc(C#N)cc3)C2)CC1)[C@H]1CCC[C@@H]1OC(=O)NC (mixture of isomers) [compound 408, rac-(1S,2R)-2-(1-(1-((1-(4-cyanophenyl)azetidin-3-yl)methyl)piperidin-4-yl)-2-(2-ethyl-1H-imidazol-1-yl)-1-phenylethyl)cyclopentyl methylcarbamate] | 0.017 ± 0.007 | 0.005 ± 0.002 | 3 |  | 
7 | CNC(=O)O[C@H]1CCC[C@@H]1C(C#N)(c1ccccc1)C1CCN(CCCOc2ccc(C#N)cc2)CC1 (mixture of isomers) [compound 232, rac-(1S,2R)-2-(cyano(1-(3-(4-cyanophenoxy)propyl)piperidin-4-yl)(phenyl)methyl)cyclopentyl methylcarbamate] | 0.94 | 0.3 | 20 |  | 
8 | O=S(=O)(c1ccccc1)c1ccc(N2CC(CN3CCC(C(CN4CCCC4)(c4ccccc4)[C@H]4C=CCC4)CC3)C2)cc1 (stereo partly drawn) [compound 356, 4-(1-((R)-cyclopent-2-en-1-yl)-1-phenyl-2-(pyrrolidin-1-yl)ethyl)-1-((1-(4-(phenylsulfonyl)phenyl)azetidin-3-yl)methyl)piperidine] |  |  | 22 | 0.69 | 0.71
9 | CNC(=O)O[C@@H]1CCC[C@H]1[C@@](C#N)(c1ccccc1)C1CCN(CC2CN(c3ccc(S(=O)(=O)c4ccncc4)cc3)C2)CC1 (mixture of isomers) [compound 354, rac-(1R,2S)-2-((R)-cyano(phenyl)(1-((1-(4-(pyridin-4-ylsulfonyl)phenyl)azetidin-3-yl)methyl)piperidin-4-yl)methyl)cyclopentyl methylcarbamate] | 4.7 | 1.3 | 62 |  | 
10 | CNC(=O)O[C@H]1CCC[C@@H]1C(C#N)(c1ccccc1)C1CCN(CC2CN(c3ccc(S(=O)(=O)c4ccccc4)cc3)C2)CC1 (mixture of isomers) [compound 225, rac-(1S,2R)-2-(cyano(phenyl)(1-((1-(4-(phenylsulfonyl)phenyl)azetidin-3-yl)methyl)piperidin-4-yl)methyl)cyclopentyl methylcarbamate] | 0.82 | 0.24 | 9 |  | 
11 | CCN1Cc2ccccc2C(C2CCCC2)(C2CCN(CC3CN(c4ccc(C#N)cc4)C3)CC2)C1 (stereo not drawn) [compound 46, 4-(3-((4-(4-cyclopentyl-2-ethyl-1,2,3,4-tetrahydroisoquinolin-4-yl)piperidin-1-yl)methyl)azetidin-1-yl)benzonitrile] |  |  | 23 | 5.1 ± 0.2 | 0.972 ± 0.558
12 | CNC(=O)O[C@H]1CCC[C@@H]1C(C#N)(c1ccccc1)C1CCN(CC2CN(c3ccc(S(=O)(=O)c4nn(C)cc4Br)cc3)C2)CC1 (mixture of isomers) [compound 228, rac-(1S,2R)-2-((1-((1-(4-((4-bromo-1-methyl-1H-pyrazol-3-yl)sulfonyl)phenyl)azetidin-3-yl)methyl)piperidin-4-yl)(cyano)(phenyl)methyl) cyclopentyl methylcarbamate] | 0.25 | 0.18 | 4 |  | 
13 | CC(=O)O[C@H]1CCC[C@@H]1C1(C2CCN(CC3CN(c4ccc(S(=O)(=O)C5CC5)cc4)C3)CC2)CN(C)Cc2ccccc21 (mixture of isomers) [compound 203, rac-(1S,2R)-2-(4-(1-((1-(4-(cyclopropylsulfonyl)phenyl)azetidin-3-yl)methyl)piperidin-4-yl)-2-methyl-1,2,3,4-tetrahydroisoquinolin-4-yl)cyclopentyl acetate] | 0.687 | 0.234 | 9 |  | 
14 | CCN1Cc2ccccc2C(C2CCCC2)(C2CCN(CC3CN(c4ccc(S(=O)(=O)c5cccnc5)cc4)C3)CC2)C1 (stereo not drawn) [compound 152, 4-cyclopentyl-2-ethyl-4-(1-((1-(4-(pyridin-3-ylsulfonyl)phenyl)azetidin-3-yl)methyl)piperidin-4-yl)-1,2,3,4-tetrahydroisoquinoline] |  |  | 9 | 0.49 | 0.46
15 | CCN1Cc2ccccc2C(C2CCCC2)(C2CCN(CC3CN(c4ccc(S(=O)(=O)CC5CC5)cc4)C3)CC2)C1 (stereo not drawn) [compound 143, 4-cyclopentyl-4-(1-((1-(4-((cyclopropylmethyl)sulfonyl)phenyl)azetidin-3-yl)methyl)piperidin-4-yl)-2-ethyl-1,2,3,4-tetrahydroisoquinoline] |  |  | 28 | 3.4 ± 0.5 | 1.2 ± 1
16 | CC(=O)O[C@H]1CCC[C@@H]1C(C#N)(c1ccccc1)C1CCN(CC2CN(c3ccc(S(=O)(=O)C4CC4)cc3)C2)CC1 (mixture of isomers) [compound 187, rac-(1S,2R)-2-(cyano(1-((1-(4-(cyclopropylsulfonyl)phenyl)azetidin-3-yl)methyl)piperidin-4-yl)(phenyl)methyl)cyclopentyl acetate] | 1.9 ± 0.7 | 1.2 ± 0.3 | 18 |  | 
17 | O=S(=O)(c1ccncc1)c1ccc(N2CC(CN3CCC(C4(C5CCCC5)NCCc5ccccc54)CC3)C2)cc1 (stereo not drawn) [compound 151, 1-cyclopentyl-1-(1-((1-(4-(pyridin-4-ylsulfonyl)phenyl)azetidin-3-yl)methyl)piperidin-4-yl)-1,2,3,4-tetrahydroisoquinoline] |  |  | 15 | 0.627 | 1.3
18 | CNC(=O)N[C@H]1CCC[C@@H]1C1(C2CCN(CC3CN(c4ccc(S(=O)(=O)c5cnn(C)c5)cc4)C3)CC2)CN(C)Cc2ccccc21 (mixture of isomers) [compound 284, rac-1-methyl-3-((1S,2R)-2-(2-methyl-4-(1-((1-(4-((1-methyl-1H-pyrazol-4-yl)sulfonyl)phenyl)azetidin-3-yl)methyl)piperidin-4-yl)-1,2,3,4-tetrahydroisoquinolin-4-yl)cyclopentyl)urea] | > 10 | 2.59 | 11 |  | 
19 | CNS(=O)(=O)c1ccc(N2CC(CN3CCC(C4(C5CCCC5)NCCc5c(F)cccc54)CC3)C2)cc1 (stereo not drawn) [compound 119, 4-(3-((4-(1-cyclopentyl-5-fluoro-1,2,3,4-tetrahydroisoquinolin-1-yl)piperidin-1-yl)methyl)azetidin-1-yl)-N-methylbenzenesulfonamide] |  |  | 15 | 1.3 | 1.8
20 | CCN1Cc2ccccc2C(C2CCCC2)(C2CCN(CC3CN(c4ccc(S(=O)(=O)c5ccn(C)c5)cc4)C3)CC2)C1 (stereo not drawn) [compound 101, 4-cyclopentyl-2-ethyl-4-(1-((1-(4-((1-methyl-1H-pyrrol-3-yl)sulfonyl)phenyl)azetidin-3-yl)methyl)piperidin-4-yl)-1,2,3,4-tetrahydroisoquinoline] |  |  | 10 | 0.73 | 0.3
21 | CNC(=O)O[C@H]1CCC[C@@H]1C(C#N)(c1ccccc1)C1CCN(CC2(F)CN(c3ccc(S(=O)(=O)c4cnn(C)c4)cc3)C2)CC1 (mixture of isomers) [compound 369, rac-(1S,2R)-2-(cyano(1-((3-fluoro-1-(4-((1-methyl-1H-pyrazol-4-yl)sulfonyl)phenyl)azetidin-3-yl)methyl)piperidin-4-yl)(phenyl)methyl)cyclopentyl methylcarbamate] | 7.71 | 3.5 | 68 |  | 
